From ChEMBL document CHEMBL1144931, “Synthesis, characterization, and biological properties of 8-azido- and 8-amino-substituted 2',5'-oligoadenylates” (J Med Chem, 2003)

How the values were obtained:
[1] = biological target: T1, 2-5A-dependent ribonuclease (Mus musculus) (UniProt Q05921); test: Relative displacement of [125I]-labeled 2-5A from Ribonuclease L of mouse liver compared to pApApA
T1 sequence (whole entry): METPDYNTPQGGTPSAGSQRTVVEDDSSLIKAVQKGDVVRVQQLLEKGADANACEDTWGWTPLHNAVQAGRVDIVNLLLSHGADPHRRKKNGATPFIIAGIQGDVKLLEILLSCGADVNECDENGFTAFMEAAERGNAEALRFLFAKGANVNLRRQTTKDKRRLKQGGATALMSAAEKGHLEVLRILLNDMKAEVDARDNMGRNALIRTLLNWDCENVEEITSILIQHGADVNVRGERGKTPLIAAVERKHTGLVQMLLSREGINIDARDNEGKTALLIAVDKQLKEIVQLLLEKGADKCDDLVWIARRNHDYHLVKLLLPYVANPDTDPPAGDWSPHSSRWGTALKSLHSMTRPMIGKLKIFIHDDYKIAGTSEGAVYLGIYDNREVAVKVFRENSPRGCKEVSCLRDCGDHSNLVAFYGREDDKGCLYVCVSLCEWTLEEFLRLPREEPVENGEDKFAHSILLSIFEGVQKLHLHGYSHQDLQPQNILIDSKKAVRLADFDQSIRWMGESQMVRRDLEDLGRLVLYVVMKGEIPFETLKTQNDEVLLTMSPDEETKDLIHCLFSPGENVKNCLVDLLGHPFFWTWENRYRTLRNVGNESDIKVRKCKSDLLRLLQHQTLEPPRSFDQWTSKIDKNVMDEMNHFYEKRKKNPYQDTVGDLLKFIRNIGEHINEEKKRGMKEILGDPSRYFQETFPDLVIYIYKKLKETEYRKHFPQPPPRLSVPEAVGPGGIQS

[2] = biological target: T2, 2-5A-dependent ribonuclease (Mus musculus, UniProt Q05921); test: Displacement of [125I]-labeled 2-5A from 2-5A dependent Ribonuclease L (RNase L) of mouse liver
T2 sequence (Q05921 whole entry): T1 sequence (whole entry)

SMILES	Relative activity [1]	IC50 [2] [nM]
Nc1ncnc2c1ncn2[C@@H]1O[C@H](COP(=O)(O)O[C@@H]2[C@H](O)[C@@H](COP(=O)(O)O[C@@H]3[C@H](O)[C@@H](COP(=O)(O)OP(=O)(O)OP(=O)(O)O)O[C@H]3n3cnc4c(N)ncnc43)O[C@H]2n2cnc3c(N)ncnc32)[C@@H](O)[C@H]1O	1.3	–
Nc1ncnc2c1nc(N)n2C1O[C@H](COP(=O)(O)O[C@H]2C(n3c(N)nc4c(N)ncnc43)O[C@H](COP(=O)(O)O[C@H]3C(n4c(N)nc5c(N)ncnc54)O[C@H](COP(=O)(O)O[C@H]4C(n5c(N)nc6c(N)ncnc65)O[C@H](COP(=O)(O)O)[C@H]4O)[C@H]3O)[C@H]2O)[C@@H](O)[C@H]1O (stereo partly specified)	0.008	500
Nc1ncnc2c1nc(N)n2C1O[C@H](COP(=O)(O)O[C@H]2C(n3c(N)nc4c(N)ncnc43)O[C@H](CO)[C@H]2O)[C@@H](O)[C@H]1O (stereo partly specified)	< 0.0004	> 10000
Nc1ncnc2c1ncn2[C@@H]1O[C@H](CO[P@](=O)(O)O[C@@H]2[C@H](O)[C@@H](CO[P@](=O)(O)O[C@@H]3[C@H](O)[C@@H](CO[P@](=O)(O)O[P@@](=O)(O)OP(=O)(O)O)O[C@H]3n3cnc4c(N)ncnc43)O[C@H]2n2cnc3c(N)ncnc32)[C@@H](O)[C@H]1O	–	3
[N-]=[N+]=Nc1nc2c(N)ncnc2n1C1O[C@H](COP(=O)(O)O[C@H]2C(n3c(N=[N+]=[N-])nc4c(N)ncnc43)O[C@H](COP(=O)(O)O)[C@H]2O)[C@@H](O)[C@H]1O (stereo partly specified)	0.0008	5000
Nc1ncnc2c1nc(N)n2[C@@H]1O[C@H](COP(=O)(O)O[C@@H]2[C@H](O)[C@@H](COP(=O)(O)O[C@@H]3[C@H](O)[C@@H](COP(=O)(O)O[C@@H]4[C@H](O)[C@@H](CO)O[C@H]4n4c(N)nc5c(N)ncnc54)O[C@H]3n3c(N)nc4c(N)ncnc43)O[C@H]2n2c(N)nc3c(N)ncnc32)[C@@H](O)[C@H]1O	0.004	1000
Nc1ncnc2c1nc(N)n2C1O[C@H](COP(=O)(O)O[C@H]2C(n3c(N)nc4c(N)ncnc43)O[C@H](COP(=O)(O)O)[C@H]2O)[C@@H](O)[C@H]1O (stereo partly specified)	< 0.0004	> 10000
[N-]=[N+]=Nc1nc2c(N)ncnc2n1C1O[C@H](COP(=O)(O)O[C@H]2C(n3c(N=[N+]=[N-])nc4c(N)ncnc43)O[C@H](CO)[C@H]2O)[C@@H](O)[C@H]1O (stereo partly specified)	< 0.0004	> 10000

Results, then the compound that gave them:

Relative activity [1]	IC50 [2] [nM]	SMILES
< 0.0004	> 10000	Nc1ncnc2c1nc(N)n2[C@@H]1O[C@H](COP(=O)(O)O[C@@H]2[C@H](O)[C@@H](COP(=O)(O)O[C@@H]3[C@H](O)[C@@H](COP(=O)(O)O)O[C@H]3n3c(N)nc4c(N)ncnc43)O[C@H]2n2c(N)nc3c(N)ncnc32)[C@@H](O)[C@H]1O
0.8	50	[N-]=[N+]=Nc1nc2c(N)ncnc2n1[C@@H]1O[C@H](COP(=O)(O)O[C@@H]2[C@H](O)[C@@H](COP(=O)(O)O[C@@H]3[C@H](O)[C@@H](COP(=O)(O)O[C@@H]4[C@H](O)[C@@H](CO)O[C@H]4n4c(N=[N+]=[N-])nc5c(N)ncnc54)O[C@H]3n3c(N=[N+]=[N-])nc4c(N)ncnc43)O[C@H]2n2c(N=[N+]=[N-])nc3c(N)ncnc32)[C@@H](O)[C@H]1O
0.6	70	[N-]=[N+]=Nc1nc2c(N)ncnc2n1C1O[C@H](COP(=O)(O)O[C@H]2C(n3c(N=[N+]=[N-])nc4c(N)ncnc43)OC(COP(=O)(O)O[C@H]3C(n4c(N=[N+]=[N-])nc5c(N)ncnc54)O[C@H](CO)[C@H]3O)[C@H]2O)[C@@H](O)[C@H]1O (stereo partly specified)
< 0.0004	> 10000	Nc1ncnc2c1nc(N)n2[C@@H]1O[C@H](COP(=O)(O)O[C@@H]2[C@H](O)[C@@H](COP(=O)(O)O[C@@H]3[C@H](O)[C@@H](CO)O[C@H]3n3c(N)nc4c(N)ncnc43)O[C@H]2n2c(N)nc3c(N)ncnc32)[C@@H](O)[C@H]1O
2	2	[N-]=[N+]=Nc1nc2c(N)ncnc2n1C1OC(COP(=O)(O)O)C(O)C1OP(=O)(O)OCC1OC(n2c(N=[N+]=[N-])nc3c(N)ncnc32)C(OP(=O)(O)OC[C@H]2OC(n3c(N=[N+]=[N-])nc4c(N)ncnc43)[C@H](O)[C@@H]2O)C1O (stereo partly specified)
2	2	[N-]=[N+]=Nc1nc2c(N)ncnc2n1[C@@H]1O[C@H](COP(=O)(O)O[C@@H]2[C@H](O)[C@@H](COP(=O)(O)O[C@@H]3[C@H](O)[C@@H](COP(=O)(O)O[C@@H]4[C@H](O)[C@@H](COP(=O)(O)O)O[C@H]4n4c(N=[N+]=[N-])nc5c(N)ncnc54)O[C@H]3n3c(N=[N+]=[N-])nc4c(N)ncnc43)O[C@H]2n2c(N=[N+]=[N-])nc3c(N)ncnc32)[C@@H](O)[C@H]1O
